Assay results from patent publication US5874461A, “Use of Nebivolol as an anti-atherogenic” (priority 1995, dated 1999).

Columns and labels:
C6 glioma cells = assay: Fluorescence measurement of intracellular peroxides in C6 glioma cells after glutamate; assay type: cell-based; settings: for glutamate-mediated increase in peroxidation: 10 mM glutamate; for Intracellular peroxides (mean ± SD, n): glutamate 10 mM, without or with compound 1 μM
Excerpt: Competitive inhibition by glutamate of cystine uptake in certain cells leads to glutathione depletion and oxidative stress. This oxidative stress model has been described for glial C6 glioma cells (Kato et al., 1992. A mechanism for glutamate toxicity in the C6 glioma cells involving inhibition of cystine uptake leading to glutathione depletion. Neurosci. 48:903-914) and for the neuronal cell line N18RE105 (Murphy et al., 1989. Glutamate toxicity in a neuronal cell line involves inhibition of cystine transport leading to oxidative stress. Neuron 2:1547-1558).
Cell culture: The C6 glioma cell line (American Type Culture Collection, CCL 107) was cultivated in DMEM supplemented with 2 or 4 mM glutamine, 1 mM pyruvate and 5 or 10% heat-inactivated foetal calf serum. Cultures were maintained at 37° C. in an air/5~10% CO2, water saturated atmosphere.
Glutathione depletion and evaluation of drugs as antioxidants: Experiments were carried out with cultures plated at 30,000~50,000 cells/cm^2 in 24-well culture plates (for toxicity and lipid peroxide measurements) or at 136,000 cells/cm^2 in 96-well culture plates (for GSH determination). After 8-24 hr, the cultures were switched to culture medium in the absence or presence of the cystine uptake inhibitor glutamate at a final concentration of 10 mM. In order to test drugs for inhibition of oxidative stress, the drug was added together with glutamate (final concentration of solvent was 0.01% hydroxypropyl-β-cylodextrin, 0.1% DMSO). Intracellular glutathione levels were measured after 6~8 hr, lipid peroxides were measured after 14~20 hr, and toxicity and protection were analysed after 48 hr using an LDH assay according to the method of Bergmeyer and Bernt (UV-assay with pyruvate and NADH. In: Methods of Enzymatic Analysis. 1974. H. U. Bergmeyer, ed. Acad. Press, New York, 2nd Ed., pp 574-579).
Fluorescence measurement of intracellular peroxides: Formation of intracellular peroxides was detected using 6-carboxy-2',7'-dichlorodihydrofluorescin diacetate, di(acetoxymethyl ester) (C-DCDHF, Molecular Probes). C-DCDHF was dissolved in DMSO at a concentration of 10 mM and stored at -70° C. under nitrogen. After exposure of the culture to the glutathione depleting agents, the cells were loaded with 10 μM C-DCDHF for one hour at 37° C. Medium was aspirated off, PBS was added to the cells, and plates were read in a Cytofluor II microplate reader (PerSeptive Biosystems). Excitation and emission wavelength were selected with a 485/530 nm filter pair. The results were expressed in relative fluorescence units/μg protein.

[1] = system: primary embryonic hippocampal cultures; assay: VitE complementation (vitE depletion) test on primary neuronal cultures; assay type: cell-based, rats; settings: for rescue of survival of vitE depleted cultures: 10^-7 M and 10^-6 M
Procedure: Primary embryonic hippocampal cultures were prepared essentially as described previously (Pauwels et al., Van Aschouw, H. P., Peeters, L., Moeremans, M., Leysen, J. E. (1992) Chronic treatment with sabeluzole protects cultured rat brain neurons from the neurotoxic effects of excitatory amino acids. Synapse, 12:271-280). Hippocampal formations of rats at embryonic day 17 were dissected and dissociated in 0.05% trypsin, 0.1 mg/ml DNase I in DMEM (Dulbecco Modified Eagle Medium). Heat-inactivated horse serum (HS) was added to a concentration of 4%, and the cells were centrifuged, washed with DMEM, and resuspended in DMEM/Ham's F12 (3:1) containing 10% HS. The cells were plated at a density of 4×10^5 cells/cm^2 in poly L-lysine (0.001%) precoated multiwell-24 plates. On day 1 in culture, the medium was changed to chemically defined CDM-R12 medium (DMEM-HEPES/Ham's F12 (3:1) containing 0.26% bovine serum albumin, 30 nM sodium selenite, 3 nM 3,3',5 triiodo-L-thyronine, 0.35 μM retinol, 0.3 μM retinol acetate, 2.3 μM DL-a-tocopherol, 2.1 μM DL-a-tocopherol acetate, 3.6 μM linolenic acid, 3.6 μM linoleic acid, 0.125% human transferrin, […], 57.7 nM corticosterone, 49 U/I insulin, 0.4 μM biotin, 10 μM L-carnitine, 83 μM D(+)-galactose, 3.3 μM glutathione, 10 μM ethanolamine, 0.1 mM putrescine; Romijn, H. J., van Huizen, F., Wolters, P. S. (1984) Towards an improved serum-free, chemically defined medium for long-term culturing of cerebral cortex tissue. Neurosci. Behav. Rev., 8:301-334). Acute and prolonged pretreatment of the, cultures was essentially as described previously (Pauwels et al., 1992). Drugs were dissolved, and diluted in 10% or 1% hydroxypropyl-β-cyclodextrin such that the final concentrations of the solvent in the acute and chronic exposures were 0.1% and 0.01% respectively. Compound A as used in the following examples is [(RRSR)+(RRRS)+(SSSR) +(SSRS)]-α-[[[2-(chroman-2-yl)-2-hydroxy-ethyl]amino]methyl]-6-hydroxy-2-chromanmethanol ethanedioate (1:1).
For vitE depletion experiments, primary cultures were set up as above, but on day 1 in culture, the medium was changed to chemically defined CDM-R12 medium with (control) or without DL-a-tocopherol (vitE) and DL-a-tocopherol acetate, in the presence or absence of test coumpound. […] Addition of compounds could rescue the cultures. […] The EC50 for complementation of vitE refers to the concentration of the compound required to restore culture survival to 50% of the survival seen for the culture grown in vitE supplemented medium. Seven concentrations of each compound were tested in triplicate, the number of independent experiments is indicated in the table, and the mean EC50 -value±SD was calculated.
Primary neuronal cultures depend on the presence of the antioxidant vitE in the culture medium for survival in vitro. When vitE depleted medium is used to grow the cultures, survival drops to ±20% of control. Compounds with antioxidative properties are able to complement the lack of vitE, and as such can when added to the culture medium, rescue vitE devoid cultures. Several nebivolol derivatives were tested at 10^-7 M and 10^-6 M in the vitE depletion test on primary neuronal cultures.
When nebivolol derivatives were administered during culture, the cultures could be rescued to a certain extent. 100% vitE complementation refers to the survival of a cell culture which is indifferent from a vitE containing cell culture.
When hydroxynebivolol was administered during culture, the cultures could be rescued. The EC50 refers to the concentration at which the culture is rescued for 50%, as measured by cytoplasmic LDH activity.

| SMILES | glutamate-mediated increase in peroxidation (C6 glioma cells) | Intracellular peroxides (mean ± SD, n) (C6 glioma cells) | % vitE complementation ([1]; 10^-6 M) | % vitE complementation ([1]; 10^-7 M) | rescue of survival of vitE depleted cultures [1] | rescue of primary neuronal cultures grown in VitE depleted medium ([1]; 10^-6 M) | EC50 ([1]; Rattus norvegicus, 5 dose responses, cytoplasmic LDH activity, read-out: mean EC50 ± SD for complementation of vitE) |
| --- | --- | --- | --- | --- | --- | --- | --- |
| O[C@H](CNC[C@@H](O)[C@H]1CCc2cc(F)ccc2O1)[C@@H]1CCc2cc(F)ccc2O1 (relative stereo) [nebivolol, (RSSS) and (SRRR) α,α'-iminobis(methylene)bis[6-fluoro-2-chroman-methanol]] | inhibited the glutamate-mediated increase in peroxidation | 155 ± 13 Relative fluorescence units/μg | 29 ± 28% | 29 ± 29% | able to rescue survival of vitE depleted cultures to a certain extent | – | – |
| Oc1ccc2c(c1)CCC(C(O)CNCC(O)C1CCc3ccccc3O1)O2 (stereo not drawn) [Compound A, [(RRSR)+(RRRS)+(SSSR) +(SSRS)]-α-[[[2-(chroman-2-yl)-2-hydroxy-ethyl]amino]methyl]-6-hydroxy-2-chromanmethanol ethanedioate (1:1)] | inhibited the glutamate-mediated increase in peroxidation | 137 ± 8 Relative fluorescence units/μg | 85 ± 21% | 27 ± 28% | able to rescue survival of vitE depleted cultures to a certain extent | complete rescue | 126 ± 88 nM |
